From ChEMBL document CHEMBL1201862, “PubChem BioAssay data set” (2004)
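Dose response: 5 concentrations. Exposure: 48 h. Format: 96-well plates. Endpoint: linear interpolation; highest concentration if not reached. At the GI50, growth is halved.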 The source made the active and inactive calls. No stated cut-off is given here; in the data, active = GI50 up to about 1.1 µM and inactive = higher.

Experiments:
Experiment in all cases: DTP human tumour cell line panel, 48 h
[1] = system: M14
[2] = system: SK-MEL-5
[3] = system: ACHN
[4] = system: U-251
[5] = system: RXF 393
[6] = system: A549
[7] = system: SN12C
[8] = system: RPMI-8226
[9] = system: OVCAR-8
[10] = system: SF-539
[11] = system: K562
[12] = system: LOX IMVI
[13] = system: NCI-H460
[14] = system: NCI-H522
[15] = system: SK-MEL-2
[16] = system: NCI-H23
[17] = system: OVCAR-4
[18] = system: EKVX
[19] = system: SNB-19

Measured: GI50

N#CC(NNC(=O)Cc1ccccc1)c1cccc(O)c1 (centres undefined)
inactive: [1] > 100 µM | [2] > 100 µM | [3] > 100 µM | [4] > 100 µM | [5] > 100 µM | [6] > 100 µM | [7] > 100 µM | [8] > 100 µM | [9] > 100 µM | [10] > 100 µM | [11] > 100 µM | [12] > 100 µM | [13] > 100 µM | [14] > 100 µM | [15] > 100 µM | [16] > 100 µM | [17] > 100 µM

COC(=O)/C(Cl)=C1/CC1COCc1ccccc1 (centres undefined)
inactive: [1] 17 µM | [18] > 10 µM | [2] 24.1 µM | [3] 25.4 µM | [5] 18.9 µM | [6] 54.7 µM | [7] 36.6 µM | [8] 19.5 µM | [9] 30.5 µM | [10] 23.8 µM | [11] 17.9 µM | [12] > 10 µM | [19] 78.9 µM | [13] 43.4 µM | [14] 20.3 µM | [15] 31.9 µM | [16] 31.5 µM | [17] 31 µM

CCC12CCCC(=O)N1C(CO)C(c1ccccc1)O2 (centres undefined)
inactive: [18] > 100 µM | [2] > 100 µM | [3] > 100 µM | [4] > 100 µM | [5] > 100 µM | [6] > 100 µM | [7] > 100 µM | [8] > 100 µM | [9] > 100 µM | [10] > 100 µM | [11] > 100 µM | [12] > 100 µM | [19] > 100 µM | [13] > 100 µM | [15] > 100 µM | [16] > 100 µM | [17] > 100 µM

N#CC(N)(C(=O)CCC(=O)Nc1cccc(Cl)c1)c1ccc(Cl)cc1 (centres undefined)
inactive: [1] > 100 µM | [18] > 100 µM | [2] > 100 µM | [3] > 100 µM | [4] > 100 µM | [6] > 100 µM | [7] > 100 µM | [8] > 100 µM | [9] > 100 µM | [10] > 100 µM | [11] > 100 µM | [19] > 100 µM | [13] > 100 µM | [14] > 100 µM | [15] > 100 µM | [16] > 100 µM | [17] > 100 µM

C[C@]12CCC3[C@@H](CCC45OC4C(=O)CC[C@]35C)C1Cc1cnn(-c3ccc(F)cc3)c1N2 (some centres undefined)
inactive: [1] 48.6 µM | [18] 49.9 µM | [2] 31.5 µM | [3] 33.6 µM | [4] 28.4 µM | [5] 27.9 µM | [6] 65.5 µM | [7] 23.3 µM | [8] 19.5 µM | [9] 29.8 µM | [11] 20.9 µM | [12] 16.7 µM | [19] 27.2 µM | [13] 28.6 µM | [14] 15 µM | [15] 29.9 µM | [16] 22.2 µM | [17] > 10 µM

Clc1ccc(C2=NN(c3ccccc3)C3c4cc(Br)ccc4OCC23)cc1 (centres undefined)
inactive: [18] > 100 µM | [2] 59.7 µM | [3] > 100 µM | [4] 67.3 µM | [5] 61.1 µM | [6] > 100 µM | [8] 11.6 µM | [9] > 100 µM | [10] > 100 µM | [11] 33.8 µM | [12] 64.3 µM | [19] > 100 µM | [13] > 100 µM | [14] > 100 µM | [15] > 100 µM | [16] 86.9 µM

COc1c(C(C)C)cc2c3c1OC(=O)[C@@]31CCCC(C)(C)C1CC2 (some centres undefined)
inactive: [1] 33.5 µM | [18] 14.6 µM | [2] 11.2 µM | [3] 52.5 µM | [4] 20 µM | [5] 17.3 µM | [6] 13.6 µM | [7] 51.9 µM | [8] 18.9 µM | [9] 17.7 µM | [10] 14 µM | [11] 20.4 µM | [12] 12.5 µM | [19] 5.78 µM | [13] 40.7 µM | [14] 9.18 µM | [15] 28.1 µM | [16] 20 µM

O=C(Nc1ccc(Cl)cc1Cl)C(=O)C(C(=O)c1ccncc1)C1OC(=O)c2ccccc21 (centres undefined)
inactive: [1] > 100 µM | [18] > 100 µM | [2] > 100 µM | [3] > 100 µM | [4] > 100 µM | [5] > 100 µM | [6] > 100 µM | [7] > 100 µM | [8] > 100 µM | [9] > 100 µM | [10] > 100 µM | [11] > 100 µM | [12] > 100 µM | [19] > 100 µM | [13] > 100 µM | [14] > 100 µM | [16] > 100 µM | [17] > 100 µM

O=S1(=O)NN=C(NCc2ccc(Cl)c(Cl)c2)c2ccccc21
inactive: [1] > 100 µM | [18] > 100 µM | [2] 86.9 µM | [3] > 100 µM | [4] 30.2 µM | [5] 19.8 µM | [6] > 100 µM | [7] > 100 µM | [8] 11.5 µM | [9] > 100 µM | [10] > 100 µM | [11] 12 µM | [12] 40.2 µM | [19] > 100 µM | [13] 95.3 µM | [15] > 100 µM | [17] > 100 µM

CCCN(CCC)CCc1cc(C(C)=O)n(S(=O)(=O)c2ccc(C)cc2)c1
inactive: [1] 20.3 µM | [18] > 100 µM | [2] 41.4 µM | [3] > 100 µM | [4] > 100 µM | [6] > 100 µM | [7] > 100 µM | [8] > 100 µM | [9] > 100 µM | [10] > 100 µM | [11] 80.9 µM | [19] > 100 µM | [13] > 100 µM | [14] > 100 µM | [15] > 100 µM | [16] > 100 µM | [17] > 100 µM

CC(C)(C)c1cc2ccc(C(N)=O)cc2c(=O)[nH]1
inactive: [1] > 100 µM | [18] 82.4 µM | [2] > 100 µM | [3] > 100 µM | [4] 51.3 µM | [5] 44.9 µM | [6] > 100 µM | [7] > 100 µM | [9] > 100 µM | [10] 46.8 µM | [11] > 100 µM | [12] 62.7 µM | [19] > 100 µM | [13] > 100 µM | [14] > 100 µM | [15] > 100 µM | [16] > 100 µM | [17] > 100 µM

O=C1C(Cl)C(c2ccc([N+](=O)[O-])cc2)N1n1cnc2ccccc2c1=O (centres undefined)
inactive: [1] 32.3 µM | [18] 12.7 µM | [2] 57 µM | [3] 61.5 µM | [4] 47.8 µM | [5] 23.6 µM | [6] 30.7 µM | [7] 42.3 µM | [8] > 10 µM | [9] 19.1 µM | [11] 36.9 µM | [12] 87.1 µM | [19] 73.3 µM | [13] 17.2 µM | [14] 49.8 µM | [15] > 100 µM | [16] 32.6 µM | [17] 5.64 µM

CCCCCCCCCCCCN(O)C(=O)c1ccccc1
inactive: [1] 21.2 µM | [18] 25.9 µM | [2] > 10 µM | [3] 28.2 µM | [4] 11.8 µM | [5] 35.2 µM | [6] 24.4 µM | [7] 17.1 µM | [8] 15.1 µM | [9] 18.9 µM | [10] 20.6 µM | [11] 18.9 µM | [12] 20.5 µM | [19] 42.6 µM | [13] > 10 µM | [14] 25.6 µM | [15] 47 µM | [16] 14.9 µM

Nc1ccc(C(=O)NN2C(=O)C(Cl)C2c2cccc([N+](=O)[O-])c2)cc1 (centres undefined)
inactive: [1] 23 µM | [18] 28.2 µM | [2] 19.2 µM | [3] 20.1 µM | [4] 13.9 µM | [6] 46.3 µM | [7] 19.7 µM | [8] 23.2 µM | [9] 18.1 µM | [10] 20.7 µM | [11] 20.8 µM | [12] 10.2 µM | [19] 17.3 µM | [13] 59.7 µM | [14] 12 µM | [15] 16.8 µM | [16] 16.4 µM | [17] 16.4 µM

CCOc1ccc2c(c1)[n+]([O-])c(-c1ccccc1)c(N)[n+]2[O-]
inactive: [1] 81.5 µM | [18] 89.1 µM | [2] 24.3 µM | [3] 55.1 µM | [4] 47.6 µM | [6] > 100 µM | [7] > 100 µM | [8] > 100 µM | [9] 78.5 µM | [10] 51.3 µM | [11] 45 µM | [12] > 100 µM | [19] > 100 µM | [13] 51.6 µM | [14] 16.8 µM | [15] > 100 µM | [16] 29.9 µM | [17] > 100 µM

CC(=O)/C(=C/N1C(=O)CC(=O)NC1=S)C(=O)Nc1ccccc1C
inactive: [1] 76 µM | [18] 38.5 µM | [2] 57.9 µM | [3] 58.9 µM | [4] 36 µM | [5] 78.3 µM | [6] 34.8 µM | [7] > 100 µM | [9] > 100 µM | [10] 32.3 µM | [12] > 100 µM | [19] > 100 µM | [13] 39.2 µM | [15] > 100 µM | [16] 41.2 µM | [17] 57.5 µM
